Laboratory results from US8759500B2, “Crystalline forms of a macrolide, and uses therefor” (Cempra Pharmaceuticals, Inc., priority 2010, dated 2014).

Legend:
[1] = Further oral pharmacokinetic study in female Balb/c mice, 5, 10 and 20 mg/kg; conditions: mouse, plasma; for half-life: t½
[2] = Pharmacokinetic comparison of forms by dosing vehicle
[3] = 5 mg/kg, Mean, 5 mg/kg single oral dose
[4] = 5 mg/kg, Median, 5 mg/kg single oral dose
[5] = 10 mg/kg, Mean, 10 mg/kg single oral dose
[6] = 10 mg/kg, Median, 10 mg/kg single oral dose
[7] = 20 mg/kg, Mean, 20 mg/kg single oral dose
[8] = 20 mg/kg, Median, 20 mg/kg single oral dose

Molecule `CC[C@H]1OC(=O)[C@@](C)(F)C(=O)[C@H](C)[C@@H](O[C@@H]2O[C@H](C)C[C@H](N(C)C)[C@H]2O)[C@](C)(OC)C[C@@H](C)C(=O)[C@H](C)[C@H]2N(CCCCn3cc(-c4cccc(N)c4)nn3)C(=O)O[C@]12C` [Form II, solithromycin] has an AUC(0-t) ([1]; 5 mg/kg, AUC 0-24, Mean, 5 mg/kg single oral dose) of 4690 ng·h/mL, an AUC(0-t) ([1]; 5 mg/kg, AUC 0-24, Median, 5 mg/kg single oral dose) of 4310 ng·h/mL and a Cmax [1, 3] of 1850 ng/mL. It also gave a Cmax [1, 4] of 1800 ng/mL, a Tmax [1, 3] of 1.2 h and a Tmax [1, 4] of 1 h. For the same molecule, the half-life [1, 3] was 1.17 h, the half-life [1, 4] was 1.12 h and the AUC(0-t) ([1]; 10 mg/kg, AUC 0-24, Mean, 10 mg/kg single oral dose) was 7580 ng·h/mL. It also gave an AUC(0-t) ([1]; 10 mg/kg, AUC 0-24, Median, 10 mg/kg single oral dose) of 7590 ng·h/mL, a Cmax [1, 5] of 2630 ng/mL and a Cmax [1, 6] of 2420 ng/mL. For the same molecule, the Tmax [1, 5] was 1.25 h, the Tmax [1, 6] was 1 h and the half-life [1, 5] was 1.42 h. The half-life [1, 6] was 1.53 h, the AUC(0-t) ([1]; 20 mg/kg, AUC 0-24, Mean, 20 mg/kg single oral dose) was 20100 ng·h/mL and the AUC(0-t) ([1]; 20 mg/kg, AUC 0-24, Median, 20 mg/kg single oral dose) was 21700 ng·h/mL. It also gave a Cmax [1, 7] of 5360 ng/mL, a Cmax [1, 8] of 5660 ng/mL and a Tmax [1, 7] of 1.1 h. It also gave a Tmax [1, 8] of 1 h, a half-life [1, 7] of 2.46 h and a half-life [1, 8] of 2.46 h. For the same molecule, the “difference in measured pharmacokinetic parameters, including Cmax, Tmax, and AUC, among Form I and Form II” value ([2]; dosed in a vehicle in which the compound is present as a solid) was “no statistical difference” and the “difference in measured pharmacokinetic parameters, including Cmax, Tmax, and AUC, among Form I and Form II” value ([2]; dosed in a vehicle in which the compound is well solubilized) was “no observed difference”.
